pIC50: −log10 of the molar value.

For 9 molecules, IC50 results are on record in patent publication US20240366598A1, “GLUCOSE-DEPENDENT INSULINOTROPIC POLYPEPTIDE RECEPTOR ANTAGONISTS AND USES THEREOF” (Pfizer Inc., priority 2023, published 2024).

In the assay the target is T1, human Glucose-dependent Insulinotropic Polypeptide Receptor (hGIPR) (Homo sapiens, UniProt P48546).
T1 sequence (P48546 22-466): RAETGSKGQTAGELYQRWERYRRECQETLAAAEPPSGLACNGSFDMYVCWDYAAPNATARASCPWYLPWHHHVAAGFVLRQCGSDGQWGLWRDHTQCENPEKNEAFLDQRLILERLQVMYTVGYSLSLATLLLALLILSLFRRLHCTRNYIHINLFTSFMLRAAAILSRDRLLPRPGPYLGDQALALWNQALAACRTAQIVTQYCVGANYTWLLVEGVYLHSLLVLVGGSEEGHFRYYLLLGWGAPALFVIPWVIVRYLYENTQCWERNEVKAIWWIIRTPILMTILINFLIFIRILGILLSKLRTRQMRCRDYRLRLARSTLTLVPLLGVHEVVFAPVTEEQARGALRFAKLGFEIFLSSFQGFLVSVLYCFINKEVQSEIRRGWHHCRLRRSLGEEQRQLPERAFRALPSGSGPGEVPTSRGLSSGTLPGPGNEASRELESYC
The assay can be described thus: Functional in vitro GIPR antagonist potency assay (cAMP HTRF, CHO-K1 cells stably expressing hGIPR, hGIP stimulation at about EC80). To be noted: geometric mean, hGIP at estimated EC80, examples marked ^2: overall geometric mean of multiple forms (including salts) tested. The class given is cell-based. How it is done: Example AA. Functional In Vitro GIPR Antagonist Potency Assay
The functional in vitro antagonist potency for test compounds was determined by monitoring intracellular cyclic adenosine monophosphate (cAMP) levels in Chinese hamster ovary (CHO)—K1 cells stably expressing the human Glucose-dependent Insulinotropic Polypeptide Receptor (hGIPR). Following agonist activation, hGIPR associates with the G-protein complex causing the Gαs subunit to exchange bound guanosine diphosphate (GDP) for guanosine triphosphate (GTP), followed by dissociation of the Gαs-GTP complex. The activated Gas subunit can couple to downstream effectors to regulate the levels of second messengers or cAMP within the cell. Thereby, determination of intracellular cAMP levels allows for pharmacological characterization. Intracellular cAMP levels are quantitated using a homogenous assay utilizing the Homogeneous Time Resolved Fluorescence (HTRF) technology from Perkin Elmer. […] The two entities compete for binding to a monoclonal anti-cAMP antibody labeled with cryptate. The specific signal is inversely proportional to the concentration of cAMP in the cells.
Test compounds were solubilized to a concentration of 30 mM in 100% dimethyl sulfoxide (DMSO). An 11-point dilution series using 1 in 3.162-fold serial dilutions was created in 100% DMSO with a top concentration of 8 mM. The serially diluted compound was spotted with an Echo Acoustic liquid handler (Beckman Coulter) into a 384-well assay plate (Corning, Cat No. 3824) at 50 nL/well with duplicate points at each concentration, at a 200× final assay concentration (FAC). The final compound concentration range in the assay was 40 μM to […], with a final DMSO concentration of 0.5%.
Frozen assay-ready vials (at 1×10^7 cells/vial) of CHO-K1 cells stably expressing the Gs-coupled human GIPR receptor (Eurofins, DiscoverX, Cat No. 95-0146C2) were thawed, counted, and resuspended in assay buffer consisting of Hank's Balanced Salt Solution (HBSS, Lonza Cat No. 10-527) containing 20 mM (4-(2-hydroxyethyl)-1-piperazineethanesulfonic acid (HEPES, Lonza, Cat No. 17-737E), 0.1% bovine serum albumin (BSA, Sigma, Cat No. A7979), and 200 μM 3-isobutyl-1-methylxanthine (IBMX, Sigma, Cat No. 15879) at a density of 4×10^5 cells/mL. Cells were added to assay plate (5 μL/well of 4×10^5 cells/mL stock for 2,000 cells/well final) containing 50 nL of 200× FAC test compound, and incubated at 37° C. (95% O2: 5% CO2) for 2 hours, with micro-clime lids (Labcyte, Cat No. LLS-0310). Following the 2-hour cell and compound incubation, a stimulation mix comprised of hGIPR agonist human glucose-dependent insulinotropic polypeptide (hGIP, full length, Sigma Cat No. G2269) in assay buffer/0.1% DMSO was added to the assay plate (5 μL/well) at an estimated EC80 FAC (based on previous hGIP agonist curves) and incubated for another 30 minutes with micro-clime lids at 37° C. (95% O2: 5% CO2), after which intracellular cAMP levels were quantified as per Perkin Elmer's protocol (5 μL of d2 and then 5 μL cryptate, incubated for 1 hour at room temperature). Emission spectra of samples were measured on a Pherastar plate reader (BMG Labtech Inc) using a HTRF protocol (excitation, 320 nm; emission, 665 nm/620 nm).
(95% O2: 5% CO2), with a micro-clime lid. Following the 2-hour cell and DMSO incubation, a hGIP concentration response curve at 2× FAC (12-point curve using 1 in 3 serial dilutions, with triplicate points at each concentration, 100 nM final top concentration) in assay buffer/1% DMSO was added (5 μL/well) and incubated for a further 30 minutes with a micro-clime lid at 37° C. (95% O2: 5% CO2), after which intracellular cAMP levels were quantified and samples measured as described previously. Experiments passed quality control if the agonist concentration used for stimulation fell between the on-the-day EC50-EC90. […]
Broadly, the pIC50 is the negative decadic logarithm of the IC50, by convention in mol/L. With `CC(C)c1ccc(NC(=O)N2CCC[C@@H]2C(=O)Nc2ccc3cc(C(=O)O)ccc3c2)cc1` (racemic) [Example 41, 6-[(1-{[4-(propan-2-yl)phenyl]carbamoyl}prolyl)amino]naphthalene-2-carboxylic acid], the pIC50 was 6.80.

With `CC(C)c1ccc(NC(=O)N2CCC[C@@H]2C(=O)Nc2ccc(-c3ccc(C(=O)O)cc3)cc2)cc1` (racemic) [Example 44, 4′-[(1-{[4-(propan-2-yl)phenyl]carbamoyl}prolyl)amino][1,1′-biphenyl]-4-carboxylic acid], the pIC50 is 8.17.

With `CC(C)c1ccc(NC(=O)N2CC[C@H](C)[C@@H]2C(=O)Nc2ccc(-c3ccc(C(=O)O)cc3)cc2)cc1` (single isomer, unassigned) [Example 34, 4′-{[(3S)-3-Methyl-1-{[4-(propan-2-yl)phenyl]carbamoyl}-D-prolyl]amino}[1,1′-biphenyl]-4-carboxylic acid or 4′-{[(3R)-3-Methyl-1-{[4-(propan-2-yl)phenyl]carbamoyl}-L-prolyl]amino}[1,1′-biphenyl]-4-carboxylic acid], the pIC50 was 8.00.

Regarding `CC(C)c1ccc(NC(=O)N2CC[C@@H](C)[C@@H]2C(=O)Nc2ccc(-c3ccc(C(=O)O)cc3)cc2)cc1` (single isomer, unassigned) [Example 35, 4′-{[(3R)-3-Methyl-1-{[4-(propan-2-yl)phenyl]carbamoyl}-D-prolyl]amino}[1,1′-biphenyl]-4-carboxylic acid or 4′-{[(3S)-3-Methyl-1-{[4-(propan-2-yl)phenyl]carbamoyl}-L-prolyl]amino}[1,1′-biphenyl]-4-carboxylic acid], the negative-log IC50 (pIC50) was 8.34.

For `CC[C@H]1CCN(C(=O)Nc2ccc(C(C)C)cc2)[C@H]1C(=O)Nc1ccc(-c2ccc(C(=O)O)cc2)cc1` (single isomer, unassigned) [Example 165, 4′-{[(3R)-3-ethyl-1-{[4-(propan-2-yl)phenyl]carbamoyl}-L-prolyl]amino}[1,1′-biphenyl]-4-carboxylic acid or 4′-{[(3S)-3-ethyl-1-{[4-(propan-2-yl)phenyl]carbamoyl}-D-prolyl]amino}[1,1′-biphenyl]-4-carboxylic acid], the negative-log IC50 (pIC50) is 8.34.

With `CC[C@@H]1CCN(C(=O)Nc2ccc(C(C)C)cc2)[C@H]1C(=O)Nc1ccc(-c2ccc(C(=O)O)cc2)cc1` (single isomer, unassigned) [Example 166, 4′-{[(3R)-3-ethyl-1-{[4-(propan-2-yl)phenyl]carbamoyl}-D-prolyl]amino}[1,1′-biphenyl]-4-carboxylic acid or 4′-{[(3S)-3-ethyl-1-{[4-(propan-2-yl)phenyl]carbamoyl}-L-prolyl]amino}[1,1′-biphenyl]-4-carboxylic acid], the negative-log IC50 (pIC50) is 8.24.

On to `O=C(O)[C@@H]1CCc2nc(NC(=O)[C@H]3CCCN3C(=O)Nc3ccc(C(F)(F)F)cc3)ccc2C1` (single isomer, unassigned) [Example 217, 2-[(1-{[4-(trifluoromethyl)phenyl]carbamoyl}-D-prolyl)amino]-5,6,7,8-tetrahydroquinoline-6-carboxylic acid, DIAST-1], for which the pIC50 is 6.85.

Take `O=C(O)[C@@H]1CCc2nc(NC(=O)[C@H]3CCCN3C(=O)Nc3ccc(C(F)(F)F)cc3)ccc2C1` (single isomer, unassigned) [Example 218, 2-[(1-{[4-(trifluoromethyl)phenyl]carbamoyl}-D-prolyl)amino]-5,6,7,8-tetrahydroquinoline-6-carboxylic acid, DIAST-2]: the pIC50 is 7.48.

In the case of `O=C(O)[C@@H]1CCc2nc(NC(=O)[C@H]3CCCN3C(=O)Nc3ccc(C(F)(F)F)c(F)c3)ccc2C1` (single isomer, unassigned) [Example 220, 2-[(1-{[3-fluoro-4-(trifluoromethyl)phenyl]carbamoyl}-D-prolyl)amino]-5,6,7,8-tetrahydroquinoline-6-carboxylic acid, DIAST-1], the pIC50 is 7.33.
